Data on 12 compounds can be found in patent US9586986B2, “Substituted 7-deazapurine ribonucleosides for therapeutic uses” (Institute of Organic Chemistry and Biochemistry ASCR, v.v.i., priority 2014, dated 2017).

The subject of one data set is BJ. The experiment in a line: Cytostatic/cytotoxic MTT assay, BJ fibroblasts. In kind it is cell-based. The following applies: Homo sapiens, 72 h, read-out: MTT, IC50 BJ. An excerpt: (§1) Unless otherwise stated, all cells were purchased from the […] (ATCC). The CCRF-CEM line is derived from T lymphoblastic leukemia, evincing high chemosenzitivity, K562 represent cells from a […] patient sample with bcr-abl translocation, HCT116 is colorectal tumor cell line and its p53 gene knock-down counterpart (HCT116p53−/−, Horizon Discovery, UK) is a model of human cancers with p53 inactivation frequently associated with poor prognosis, A549 cell line is lung adenocarcinoma. The daunorubicin resistant subline of CCRF-CEM cells (CEM-DNR bulk) and paclitaxel resistant subline K562-TAX were selected in our laboratory by cultivation of maternal cell lines in increasing concentrations of daunorubicine or paclitaxel, respectively. The CEM-DNR cells overexpress mrp-1 and mdr-1 genes, while K562-TAX cells overexpress mdr-1 only. Both proteins belong to the family of ABC transporters and are involved in the primary and/or acquired multidrug resistance phenomenon (ref.: Gottesman, M. M.; Fojo, T.; Bates, S. E. Multidrug resistance in cancer: role of ATP-dependent transporters. Nat. Rev. Cancer. 2002, 2, 48-58. (b) Noskova, V.; Dzubak, P.; Kuzmina, G.; Ludkova, A.; Stehlik, D.; Trojanec, R.; Janostakova, A.; Korinkova, G.; Mihal, V.; Hajduch, M. In vitro chemoresistance profile and expression/function of MDR associated proteins in resistant cell lines derived from CCRF-CEM, K562, A549 and MDA MB 231 parental cells. Neoplasma 2002, 49, 418-425). Non-malignant MRC-5 and BJ cells, derived from normal human fibroblasts, were used as controls. The cells were maintained in Nunc/Corning 80 cm^2 plastic tissue culture flasks and cultured in cell culture medium (DMEM/RPMI 1640 with 5 g/L glucose, 2 mM glutamine, 100 U/mL penicillin, 100 µg/mL streptomycin, 10% fetal calf serum, and NaHCO3). Cell suspensions were prepared and diluted according to the particular cell type and the expected target cell density (25,000-30,000 cells/well based on cell growth characteristics). Cells were added by pipette (80 L) into 96-well microtiter plates. Inoculates were allowed a pre-incubation period of 24 h at 37° C. and 5% CO2 for stabilization. Four-fold dilutions, in 20-L aliquots, of the intended test concentration were added to the microtiter plate walls at time zero. All test compound concentrations were examined in duplicate. Incubation of the cells with the test compounds lasted for 72 h at 37° C., in a 5% CO2 atmosphere at 100% humidity. At the end of the incubation period, the cells were assayed using MTT. Aliquots (10 L) of the MTT stock solution (5 mg/ml) were pipetted into each well and incubated for another 1-4 h. After this incubation period the formazan produced was dissolved by addition of 100 µL/well of 10% aq SDS (pH 5.5), followed by a further incubation at 37° C. overnight. The optical density was measured at 540 nm. The IC50 value, the drug concentration inhibiting the cell growth by 50%, was calculated from appropriate dose-response curves.
(§2) In vitro cytotoxic/cytostatic activity final nucleosides 1-5 was initially evaluated against […] cell lines derived from human solid tumors including lung (A549 cells) and colon (HCT116 and HCT116p53−/−) carcinomas, as well as leukemia cell lines (CCRF-CEM, CEM-DNR, K562 and K562-TAX) and, for comparison, non-malignant BJ and MRC-5 fibroblasts. Concentrations inhibiting the cell growth by 50% (IC50) were determined using a quantitative metabolic staining with 3-(4,5-dimethylthiazol-2-yl)-2,5-diphenyltetrazolium bromide (MTT) (ref.: Denizot, F.; Lang, R. Rapid colorimetric assay for cell growth and survival: Modifications to the tetrazolium dye procedure giving improved sensitivity and reliability. J. Immunol. Meth. 1986, 89, 271-277) following a 3-day treatment.
A general note: Tetrazolium assays rely on reduction of a dye to a coloured formazan, in cell work by metabolically active cells.

For a further data set, the system named is CCRF-CEM. In words: Cytostatic/cytotoxic MTT assay, CCRF-CEM. Particulars: Homo sapiens, read-out: MTT, IC50 CCRF-CEM. The data set is classed as cell-based.
Source text: as §1, §2

For another data set, the system named is K562-TAX. The experiment in a line: Cytostatic/cytotoxic MTT assay, K562-TAX. The data set is classed as cell-based. Particulars: Homo sapiens, 72 h, read-out: MTT, IC50 K562-TAX.
Source text: as §1, §2
Multidrug resistance is a major therapeutic problem in cancer chemotherapy. […]

Another data set concerns A549. In words: Cytostatic/cytotoxic MTT assay, A549. In kind it is cell-based. The following applies: Homo sapiens, read-out: MTT, IC50 A549.
Source text: as §1, §2

The term IC50 denotes the concentration that inhibits the measured activity by half. What is called melting point is the temperature of the solid-liquid transition.

Structures are written as SMILES. Where two headings read alike, the source gives them in different places.

`COc1ncnc2c1c(-c1ccccc1)cn2[C@@H]1O[C@H](CO)[C@@H](O)[C@H]1O` [Compound 1e, 4-Methoxy-5-phenyl-7-(β-D-ribofuranosyl)-7H-pyrrolo[2,3-d]pyrimidine] displayed a melting point of 117 to 120 °C. Also, the IC50 in the data set on BJ (non-malignant fibroblasts) was above 100 µM. Further, the IC50 with CCRF-CEM (72 h incubation) is above 20 µM. Also, in the data set on K562-TAX (paclitaxel resistant subline), the IC50 is above 20 µM. Further, the IC50 in the data set with A549 (A549, 72 h incubation) was above 20 µM.
In turn, `CSc1ncnc2c1c(-c1ccoc1)cn2[C@@H]1O[C@H](CO)[C@@H](O)[C@H]1O` [Compound 2b, 5-(Furan-3-yl)-4-methylsulfanyl-7-(β-D-ribofuranosyl)-7H-pyrrolo[2,3-d]pyrimidine] had a melting point of 121 to 124 °C. Also, the IC50 in the data set on BJ (non-malignant fibroblasts) was found to be 98.8 µM. Moreover, the IC50 in the data set with CCRF-CEM (72 h incubation) is 14.2 µM. Besides, in the data set on K562-TAX (paclitaxel resistant subline), the half-maximal inhibitory concentration (IC50) turned out to be 3.25 µM. In addition, in the data set with A549 (A549, 72 h incubation), the IC50 was 0.28 µM.
Consider `Cc1ncnc2c1c(-c1ccoc1)cn2[C@@H]1O[C@H](CO)[C@@H](O)[C@H]1O` [Compound 5b, 5-(Furan-3-yl)-4-methyl-7-(β-D-ribofuranosyl)-7H-pyrrolo[2,3-d]pyrimidine], for which the IC50 is 89.2 µM in the data set on BJ (non-malignant fibroblasts); above 20 µM with CCRF-CEM (72 h incubation); above 20 µM with K562-TAX (paclitaxel resistant subline); above 20 µM with A549 (A549, 72 h incubation).
Turning to `Cc1ncnc2c1c(-c1ccsc1)cn2[C@@H]1O[C@H](CO)[C@@H](O)[C@H]1O` [Compound 5d, 4-Methyl-7-(β-D-ribofuranosyl)-5-(thiophen-3-yl)-7H-pyrrolo[2,3-d]pyrimidine], the half-maximal inhibitory concentration (IC50) is 96.9 µM with BJ (non-malignant fibroblasts); 11.2 µM with CCRF-CEM (72 h incubation); 5.55 µM in the data set on K562-TAX (paclitaxel resistant subline); above 20 µM in the data set with A549 (A549, 72 h incubation).
For `Cc1ncnc2c1c(-c1ccccc1)cn2[C@@H]1O[C@H](CO)[C@@H](O)[C@H]1O` [Compound 5e, 4-Methyl-5-phenyl-7-(β-D-ribofuranosyl)-7H-pyrrolo[2,3-d]pyrimidine] the same measures were above 100 µM, above 20 µM, above 20 µM and above 20 µM.
The like results for `Cc1ncnc2c1c(-c1cc3ccccc3o1)cn2[C@@H]1O[C@H](CO)[C@@H](O)[C@H]1O` [Compound 5f, 5-(Benzofuran-2-yl)-4-methyl-7-(β-D-ribofuranosyl)-7H-pyrrolo[2,3-d]pyrimidine] were, in that order, 93.9 µM, 17.3 µM, above 20 µM and above 20 µM.
On to `C#Cc1cn([C@@H]2O[C@H](CO)[C@@H](O)[C@H]2O)c2ncnc(C)c12` [Compound 5g, 5-Ethynyl-4-methyl-7-(β-D-ribofuranosyl)-7H-pyrrolo[2,3-d]pyrimidine], for which the IC50 in the data set on BJ (non-malignant fibroblasts) turned out to be 0.05 µM; in the data set with CCRF-CEM (72 h incubation), 5.6 µM; with K562-TAX (paclitaxel resistant subline) it was 0.11 µM; with A549 (A549, 72 h incubation) it was 19.2 µM.
For `COc1ncnc2c1ccn2[C@@H]1O[C@H](CO)[C@@H](O)[C@H]1O` [RC1, reference compound] the same measures were above 100 µM, above 20 µM, above 20 µM and above 20 µM.
As to `CSc1ncnc2c1ccn2[C@@H]1O[C@H](CO)[C@@H](O)[C@H]1O` [RC2, reference compound], the IC50 is above 100 µM with BJ; above 20 µM in the data set on CCRF-CEM (72 h); 0.1 µM in the data set with K562-TAX; above 20 µM with A549 (A549, 72 h).
As for `CNc1ncnc2c1ccn2[C@@H]1O[C@H](CO)[C@@H](O)[C@H]1O` [RC3, reference compound], the IC50 was 91.4 µM with BJ (non-malignant fibroblasts); above 20 µM in the data set with CCRF-CEM (72 h incubation); 0.92 µM in the data set on K562-TAX (paclitaxel resistant subline); above 20 µM in the data set with A549 (A549, 72 h incubation).
For the compound `CN(C)c1ncnc2c1ccn2[C@@H]1O[C@H](CO)[C@@H](O)[C@H]1O` [RC4, reference compound], the IC50 was 5.3 µM with BJ (non-malignant fibroblasts); 0.63 µM with CCRF-CEM (72 h incubation); 0.89 µM in the data set with K562-TAX (paclitaxel resistant subline); above 20 µM in the data set on A549 (A549, 72 h incubation).
Consider `Cc1ncnc2c1ccn2[C@@H]1O[C@H](CO)[C@@H](O)[C@H]1O` [RC5, 4-Methyl-7-(β-D-ribofuranosyl)-7H-pyrrolo[2,3-d]pyrimidine, reference compound], for which the IC50 with BJ was determined as 0.07 µM; in the data set on CCRF-CEM (72 h), 0.01 µM; with K562-TAX it was 0.05 µM; with A549 (A549, 72 h), 0.03 µM.
